In US8158623B2, “Heptacyclic compounds and the pharmaceutical uses thereof for preventing and treating diabetes and metabolic syndrome” (Shanghai Institute of Materia Medica Chinese Academy of …, priority 2007, dated 2012):
Entries after “also recorded” stand apart in the source; their conditions may differ.

Key:
[1] = system: Acetyl CoA Carboxylase (ACC); test: Phosphorylation of ACC in HepG2 cell (Western blot); type: cell-based, Human; details: HepG2, 50 uM, 5 minutes, P<0.01 or P<0.05
Procedure: (§1) Human hepatoma carcinoma cell strain (HepG2, purchased from the cell bank of Shanghai Institute of Cell Biology of Chinese Academy) was used. The Human hepatoma carcinoma cells were passaged by 0.1% pancreatin/0.02% EDTA digestion, and cultured in a incubator at 37° C. using MEM culture medium containing 10% FBS, under 5% CO2/95%.
(§2) HepG2 cells were cultured in 6-well plates for 48 hours until 70%-80% confluence. Serum starvation was started by changing medium with MEM containing 0.5% BSA. After starvation for 6 hours, cells were treated with the compounds (final concentration of 50 uM, containing 0.25% DMSO) for 5 minutes. The culture medium was discarded, and cells were harvested and washed for twice with pre-cooled PBS. The washing liquid was discarded, and any residual PBS was blotted dry. DMSO without heptacyclic compounds was used as control.
(§3) Extraction of total cellular protein: 150 μl/well homogenizing buffer (137 mM NaCl, 2.7 mM KCl, 1 mM MgCl2, 0.5 mM Na3VO4, 1% Triton X-100, 10% Glycerol, 20 mM Tris-HCl pH 7.8, 1 ug/ml Leupeptin, 0.2 mM PMSF, 10 mM NaF, 1 ug/ml Aprotinin, 1 mM EDTA, 1 mM DTT, 5 mM Sodium pyrophosphate, 1 mM Benzamidine) was added. Cells were collected into a 1.5 ml centrifuge tube using cell scraper. Cells were homogenized using sonicator (5 W of power) for 2 times (3 seconds per time), and shaken on a shaker for 1 hour. Supernatant (i.e., total cellular protein) was collected by centrifuging at 14000 rpm for 15 min at 4° C., and stored at −70° C. until use. After the protein concentration was determined by Bradford method, the supernatant was formulated as the loading sample with final concentration of 0.6 mg/ml. The whole preparation process was performed at 4° C.
(§4) Protein Electrophoresis: After being treated at 95° C. for 5 min, the loading sample was loaded (15 μg protein/lane). The protein was separated on 7.5% SDS-acrylamide gel for 1-2 hours under the voltage of 80-120 V.
(§5) Electrotransferring the protein and blocking the membrane: After electrophoresis was finished, the protein was transferred to PVDF membrane using semi-dry transferring slot based on 0.8 mA/cm^2 membrane area under the electric current of 80 mA for 2 hours. After that, the membrane was shaken for 2 hours with 7.5% skim milk/TTBS to block the membrane.
(§6) Antigen-antibody reaction: After the blocking process was finished, the membrane was incubated with primary antibody (antibody against phosphorylated ACC (P-ACC) and antibody against phosphorylated AMPK (P-AMPK), all purchased from Cell signaling (USA), with the working concentration of 1:1000) overnight at 4° C. The membrane was removed, and the primary antibody was recovered. The membrane was washed 5 times, each for 10 min in TTBS. The membrane was shaken for 2 hours with the secondary antibody (horseradish peroxidase-conjugated goat-anti-rabbit IgG antibody, purchased from Bio-rad (USA), with the working concentration of 1:5000) at room temperature. The secondary antibody was discarded. The membrane was washed 5 times, each for 10 min in TTBS in order to remove the unbound secondary antibody.
(§7) ECL exposure and development: Luminescent agents, ECL 1, 2, were mixed homogeneously, and incubated with the membrane for 3-5 min. The membrane was removed, wrapped in preservative film, and transferred into dark room for exposure. After exposure with X-film, the film was developed, washed, recorded and conserved.
(§8) Semi-quantitative analysis was performed through optical density scan using computer image analysis system. Grey level of the protein expression was calculated. The target grey level was divided by the grey level of internal standard, and a histogram was plotted, taking the normal group as 1 unit.

[2] = system: AMP-Activated Protein Kinase (AMPK); test: Phosphorylation of AMPK in HepG2 cell (Western blot); type: cell-based, Human; details: HepG2, 50 uM, 5 minutes, P<0.01 or P<0.05
Procedure: as §1, §2, §3, §4, §5, §6, §7, §8

3T3-L1 adipocytes = test: Glucose uptake in 3T3-L1 adipocytes (3H-labelled 2-deoxyglucose); type: cell-based; details: for Glucose uptake, Mean, Compound + Insulin Group (Control Group = 1.000): 10 μM, 2 h incubation, with insulin, relative to control without insulin; for fold induction at 10 µM: Mus musculus, 3T3-L1, 2 h incubation, baseline (without insulin), relative to control, read-out: Glucose uptake, Mean, Compound Group (Control Group = 1.000)
Procedure: The effect of the compounds on baseline or insulin-stimulated glucose uptake was evaluated, using the model of glucose uptake in 3T3-L1 adipocytes.
Adipose tissue is the target of glucose metabolism in vivo. The sensitivity for insulin and availability of glucose in adipose tissues are tightly associated with the insulin resistance. The transportation of glucose into adipocytes is a rate-limiting step for the glucose metabolism, and also an important indicator for evaluating the sensitivity for insulin in adipose tissue. 3T3-L1 is a kind of pre-adipocyte, and can become adipocyte after differentiated completely. Therefore, 3T3-L1 is a desirable model for the glucose transport.
Pre-adipocyte, 3T3-L1 was induced to differentiate under certain conditions. After 3T3-L1 differentiated into adipocytes, the compounds of interest with different concentrations and DMSO (used as control) can be added and incubated with the adipocytes for different periods, then the glucose uptake could be determined. For evaluating the ability for a compound to stimulate glucose uptake, the baseline and insulin-induced glucose uptake were determined, and the increase in baseline and insulin-induced glucose uptake upon treatment of the compounds as compared with control group (with 0.1% DMSO) is calculated, based on the ^3H-labelled 2-deoxyglucose inside the cells.
3T3-L1 cells purchased from Karolinska Institute (Sweden) were cultured in DMEM medium containing 10% fetal calf serum at 37° C., under 5% CO2. The cells were passaged every 3-4 days. The cells were inoculated into 12-well plate. Upon confluence, culture medium containing 0.5 mM 3-isobutyl-1-methylxanthine, 0.25 μM dexamethasone and 5 μg/ml insulin was added and cultured for 3 days. Then, the culture medium was replaced by a medium containing 5 μg/ml insulin and further cultured for 3 days. The insulin was removed, and the cells had differentiated completely into mature adipocytes after 2 days which could be used to determine the glucose uptake.
23 compounds chosen by the inventors were added into the culture medium of adipocytes in a dose of 10 μM. After incubation for 2 h, the effect of the compounds on glucose uptake in 3T3-L1 cells was observed. Culture medium without compounds was used as negative control. The control group only supplemented with insulin and the experiment group supplemented with compounds plus insulin were also employed to observe the effect of the compounds on glucose uptake.

ob/ob mice = test: Fasting blood glucose in ob/ob mice, several heptacyclic compounds, 8 days; type: in vivo; details: for Fasting blood glucose change in words: dosed continuously for 8 days, P<0.05
Procedure: Genetic spontaneous diabetes ob/ob mice were purchased from Jackson (USA), and maintained in a SPF facility (temperature: 22-24° C., humidity: 45-80%, illumination: 150-300 Lx, 12/12-hour light/dark cycle). Fasting blood glucose was determined for 3 days continuously when the mice were 7 weeks old. The mice were grouped into the treatment group and the control group (6 animals per group) according to the results determined. The treatment groups were administered orally with compound E9, G0 and F7 (psoromic acid) (100 mg/kg), and the control group was administered orally with a solution of 0.1% Tween 80 (blank control), once daily for 8 days. Fasting blood glucose in mice was determined at the end of experiment.

[3] = oral 100 mg/kg once daily, after 8 days treatment

Row | Compound | Level of phosphorylation for ACC protein versus DMSO control [1] | Level of phosphorylation for AMPK protein versus DMSO control [2] | Glucose uptake, Mean, Compound + Insulin Group (Control Group = 1.000) (3T3-L1 adipocytes) | fold induction at 10 µM (3T3-L1 adipocytes) | Fasting Blood Glucose (ob/ob mice; before administration) [mM] | Fasting blood glucose change in words (ob/ob mice) | Fasting Blood Glucose (ob/ob mice; [3]) [mM]
1 | CCN(CC)C(=O)c1cc(OC)c(C)c2c1Oc1c(C=O)c(O)cc(C)c1C(=O)O2 [AB5, 4-Formyl-3-hydroxy-8-methoxy-1,9-dimethyl-11-oxo-11H-dibenzo[b,e][1,4]dioxepine-6-carboxylic acid diethylamide] | improved significantly | increased significantly | 1.755 | 1.29 |  |  | 
2 | COc1cc(C(=O)NCc2ccccc2)c2c(c1C)OC(=O)c1c(C)cc(O)c(C=NCc3ccccc3)c1O2 [AB6, 4-(Benzylimino-methyl)-3-hydroxy-8-methoxy-1,9-dimethyl-11-oxo-11H-dibenzo[b,e][1,4]dioxepine-6-carboxylic acid benzylamide] | improved significantly | increased significantly | 1.432 | 1.14 |  |  | 
3 | CCOC(=O)c1cc(OC)c(C)c2c1Oc1c(C=O)c(O)cc(C)c1C(=O)O2 [Compound A2, 4-Formyl-3-hydroxy-8-methoxy-1,9-dimethyl-11-oxo-11H-dibenzo[b,e][1,4]dioxepine-6-carboxylic acid ethyl ester] | improved significantly | significant up-regulation | 3.138 | 1.37 |  |  | 
4 | CCCOC(=O)c1cc(OC)c(C)c2c1Oc1c(C=O)c(O)cc(C)c1C(=O)O2 [Compound A4, 4-Formyl-3-hydroxy-8-methoxy-1,9-dimethyl-11-oxo-11H-dibenzo[b,e][1,4]dioxepine-6-carboxylic acid propyl ester] | improved significantly | significant up-regulation | 3.449 | 1.18 |  |  | 
5 | COc1cc(C(=O)O)c2c(c1C)OC(=O)c1c(C)cc(O)c(CNc3ccccc3)c1O2 [Compound B9, 3-Hydroxy-8-methoxy-1,9-dimethyl-11-oxo-4-phenylaminomethyl-11H-dibenzo[b,e][1,4]dioxepine-6-carboxylic acid] | improved significantly | increased significantly | 2.824 | 1.16 |  |  | 
6 | COc1cc(C(=O)O)c2c(c1C)OC(=O)c1c(C)cc(O)c(CNCCn3cccc3)c1O2 [Compound C1, 3-Hydroxy-8-methoxy-1,9-dimethyl-11-oxo-4-[(2-pyrrol-1-yl-ethylamino)-methyl]-11H-dibenzo[b,e][1,4]dioxepine-6-carboxylic acid] | improved significantly | increased significantly | 4.059 | 1.21 |  |  | 
7 | COc1cc(C(=O)O)c2c(c1C)OC(=O)c1c(C)cc(O)c(CNCCN3CCOCC3)c1O2 [Compound C7, 3-Hydroxy-8-methoxy-1,9-dimethyl-4-[(2-morpholin-4-yl-ethylamino)-methyl]-11-oxo-11H-dibenzo[b,e][1,4]dioxepine-6-carboxylic acid] | improved significantly | increased significantly | 3.610 | 1.22 |  |  | 
8 | COc1cc(C(=O)O)c2c(c1C)OC(=O)c1c(C)cc(O)c(CO)c1O2 [Compound E9, 3-Hydroxy-4-hydroxymethyl-8-methoxy-1,9-dimethyl-11-oxo-11H-dibenzo[b,e][1,4]dioxepine-6-carboxylic acid] | improved significantly | significant up-regulation; also recorded: increased significantly | 2.965 | 1.1 | 11.99 ± 1.48 | reduced statistically significant | 8.68 ± 1.32
9 | CCOCc1c(O)c(C(=O)O)c(C)c2c1OC(=O)c1c(C)cc(O)c(C=O)c1O2 [Compound G0, 9-Ethoxymethyl-4-formyl-3,8-dihydroxy-1,6-dimethyl-11-oxo-11H-dibenzo[b,e][1,4]dioxepine-7-carboxylic acid] | improved significantly | increased significantly | 1.297 | 1.22 | 11.95 ± 1.49 | reduced statistically significant | 8.07 ± 1.07
10 | CN(C)C(=N)N=C(N)N [Metformin, reference compound] |  |  |  |  | 12.27 ± 2.69 |  | 8.13 ± 2.76
